Experimental data as given in US20130225629A1, “TARGETING PI3K/MTOR SIGNALLING AND NEUTROPHIL RECRUITMENT FOR TREATMENT OF ENTERITIS” (THE UNIVERSITY OF NORTH CAROLINA AT CHAPEL HILL, priority 2012, published 2013).

How the values were obtained:
II-17a mRNA = assay: Real-time RT-PCR of colonic II-17a mRNA; type: in vivo, mice
Method: (§1) Total RNA from colonic tissue was extracted using TRIzol® kit (Invitrogen, Carlsbad, Calif., United States of America). Complementary DNA was prepared using M-MLV (Invitrogen). Messenger RNA levels of proinflammatory genes were determined using SYBR® Green PCR Master Mix (Applied Biosystems, Carlsbad, Calif., United States of America) on an ABI 7900HT Fast Real-Time PCR System and normalized to Gapdh. The polymerase chain reactions were performed according to the manufacturer's recommendation. The following gene primers were used: Gapdh_forward: 5′-[…]-3′ (SEQ ID NO: 2), Gapdh_reverse: 5′-[…]-3′ (SEQ ID NO: 3), II-1_forward: 5′-[…]-3′ (SEQ ID NO: 4), II-1_reverse: 5′-[…]-3′ (SEQ ID NO: 5), Cxcl2_forward: 5′-[…]-3′ (SEQ ID NO: 6), Cxcl2_reverse: 5′-[…]-3′ (SEQ ID NO: 7), II-17a_forward: 5′-[…]-3′ (SEQ ID NO: 8), II-17a_reverse: 5′-[…]-3′ (SEQ ID NO: 9), II12p40_forward: […] (SEQ ID NO: 10), II12p40_reverse: […] (SEQ ID NO: 11), Tnf forward: […] (SEQ ID NO: 12), Tnf reverse: […] (SEQ ID NO: 13).
(§2) Total RNA from intestinal tissues was extracted using TRIzol® kit (Invitrogen, Carlsbad, Calif., United States of America) following the manufacture's guide. cDNA was reverse-transcribed using M-MLV (Invitrogen). Proinflammatory 111β, Cxcl2, II17a and Tnfα mRNA expression levels were measured using SYBR® Green PCR Master mix (Applied Biosystems, Carlsbad, Calif., United States of America) on an ABI 7900HT Fast Real-Time PCR System and normalized to Gapdh. The PCR primers used were reported previously. (Sun et al., 2012). The PCR reactions were performed for 40 cycles according to the manufacturer's recommendation, and RNA fold changes were calculated using the ΔΔct method.

Cxcl2 mRNA = assay: Real-time RT-PCR of colonic Cxcl2 mRNA; type: in vivo, mice
Method: as §1, §2

II1β mRNA = assay: Real-time RT-PCR of colonic II1β mRNA; type: in vivo, mice
Method: as §1, §2

Tnfα mRNA = assay: Real-time RT-PCR of colonic Tnfα mRNA; type: in vivo, mice; details: rapamycin treatment
Method: as §1

Gr-1+/CD45+ cells = assay: Flow cytometry of peripheral blood neutrophils (Gr-1+/CD45+); type: in vivo; details: rapamycin-treated infected vs untreated infected mice
Method: To assess blood neutrophils, mice were sacrificed and peripheral blood was drawn and mixed with an anticoagulant (20 μL 96 mmol/L EDTA). White blood cells were collected following erythrocyte lysis. The cells were then incubated with antibodies against CD45 (PE conjugated), Gr-1 (fluorescein isothiocyanate conjugated) (eBiosciences, San Diego, Calif., United States of America). To analyze the change of CD4^+ cells after antibody-mediated depletion, freshly isolated splenocytes and MLNs from C jejuni-infected mice were then incubated with PE-conjugated antibodies against CD4 (eBiosciences, San Diego, Calif., United States of America). The cells were analyzed on a Cyan flow cytometer (Beckman Coulter, Inc., Brea, Calif., United States of America) to determine the proportion of total immune cells, neutrophils, or CD4^+ T cells, respectively. The results were then analyzed on Summit software (Beckman Coulter, Inc., Brea, Calif., United States of America).

IL-17 = assay: ELISA of IL-17 secreted from cultured colon explants and MLN; type: in vivo; details: rapamycin-treated infected mice vs control
Method: (§3) Colonic tissue, MLNs, and spleen were weighed, minced with scissors, and incubated in 1 mL 3% fetal bovine serum and 1% antibiotics RPMI medium in a 24-well plate. After 18-hour incubation, medium was collected and centrifuged at 7000 rpm for 5 minutes. Supernatant was collected and stored at −80° C. IL-1β and IL-17 (A) concentrations were assessed by enzyme-linked immunosorbent assay kits (R&D Systems, Minneapolis, Minn., United States of America) following the manufacturer's specification. The IL-17 enzyme-linked immunosorbent assay has no cross-reactivity to IL-17B, C, D, E, and F.

II-12p40 mRNA = assay: Real-time RT-PCR of colonic II-12p40 mRNA; type: in vivo, mice; details: rapamycin treatment
Method: as §1

C. jejuni = type: in vivo, mice; details: colon, rapamycin treatment vs infected untreated mice
From the text: All animal protocols were approved by the Institutional Animal Care and Use Committee of the University of North Carolina at Chapel Hill (Chapel Hill, N.C., United States of America). Germ-free 8 to 12 week old II10^−/−; NF-κBEGFP (129/SvEv; C57BL/6 mixed background) mice were transferred from germ-free isolators and immediately gavaged with 10^9 C. jejuni cfu/mouse (strain 81-176 (Korlath et al., 1985)). Mice were then housed under Specific Pathogen-Free (SPF) conditions and sacrificed at 5 or 12 days. Germ-free II10^−/−; NF-κB^EGFP mice were also gavaged with 10^7 Salmonella typhimurium (S. typhimurium strain CA32) cfu/mouse for 2 days or 10^7 Escherichia coli (E. coli strain NC 101) cfu/mouse for 12 days. Conventionally-derived II10^−/−; NF-κB^EGFP mice were put on an antibiotic cocktail (streptomycin 2 g/L, gentamycin 0.5 g/L, bacteriocin 1 g/L and ciprofloxacin 0.125 g/L) in water for 7 days and antibiotics withdrawn 24 hours prior to infection. The mice were then gavaged with 10^9 C. jejuni cfu/mouse for 14 days. To inhibit mTOR signaling, mice were injected daily intraperitoneally (i.p.) with rapamycin (1.5 mg/kg) (Fisher Scientific, Hampton, N.H., United States of America). At the end of the experiment, mice were euthanized using CO2 intoxication. Colon, mesenteric lymph nodes (MLN) and spleen were collected for further processing RNA, protein or C. jejuni culture on Campylobacter selective blood plates (Remel, Thermo Scientific, Hampton, N.H., United States of America) for 48 h at 37° C. using the GasPak system (Becton Dickinson, Franklin Lakes, N.J., United States of America). […] Colons were fixed in 10% buffered formalin (Fisher Scientific, Hampton, N.H., United States of America) overnight, paraffin-embedded, sectioned, and stained with H&E for histological evaluation. Images were acquired using a DP71 camera and DP Controller 3.1.1.276 (Olympus, Center Valley, Pa., United States of America). Intestinal inflammation was scored by evaluating the degree of lamina propria immune cell infiltration, goblet cell depletion, architectural distortion, as well as crypt hyperplasia, ulceration, and abscesses using a score from 0-4. (Lippert et al., 2009). Cecal and colonic inflammation induced by S. typhimurium was evaluated using a score from 0-13 as described. (Hapfelmeier et al., 2005).
MLN and spleen were aseptically resected. Colon tissue was opened, resected and washed three times in sterile PBS. […] C. jejuni colonies were counted and data presented as colony forming unit (cfu)/g tissue.

IL-1β = assay: ELISA of IL-1β secreted from cultured colon explants and MLN; type: in vivo; details: rapamycin-treated infected mice vs control
Method: as §3

[1] = wortmannin vs vehicle-treated infected mice
[2] = colon, rapamycin-treated, C. jejuni-infected mice
[3] = supernatant of cultured colon explants

Structure (SMILES)	block of C. jejuni-induced II17a mRNA accumulation (II-17a mRNA; [1])	block of C. jejuni-induced Cxcl2 mRNA accumulation (Cxcl2 mRNA; [1])	block of C. jejuni-induced I11β mRNA accumulation (II1β mRNA; [1])	attenuation of C. jejuni induced II-17a mRNA accumulation (II-17a mRNA; [2])	attenuation of C. jejuni induced Cxcl2 mRNA accumulation (Cxcl2 mRNA; [2])	C. jejuni-induced colonic Tnfα mRNA accumulation (Tnfα mRNA)	decrease of ratio of Gr-1+/CD45+ cells in the blood (Gr-1+/CD45+ cells)	attenuation of C. jejuni induced I1-1β mRNA accumulation (II1β mRNA; [2])	attenuation of IL-17 production (IL-17; MLN)	reduction of secreted IL-17 (IL-17; [3])	C. jejuni-induced colonic II-12p40 mRNA accumulation (II-12p40 mRNA)	reduction of C. jejuni colonic invasion (culture count) (C. jejuni)	reduction of IL-1β production (IL-1β; MLN)	reduction of IL-1β production (IL-1β; [3])
COC[C@H]1OC(=O)c2coc3c2[C@@]1(C)C1=C(C3=O)[C@@H]2CCC(=O)[C@@]2(C)C[C@H]1OC(C)=O [wortmannin]	78%	77%	50%	–	–	–	–	–	–	–	–	–	–	–
CO[C@H]1C[C@@H]2CC[C@@H](C)[C@@](O)(O2)C(=O)C(=O)N2CCCC[C@H]2C(=O)O[C@H]([C@H](C)C[C@@H]2CC[C@@H](O)[C@H](OC)C2)CC(=O)[C@H](C)/C=C(\C)[C@@H](O)[C@@H](OC)C(=O)[C@H](C)C[C@H](C)/C=C/C=C/C=C/1C [rapamycin]	–	–	–	92%	75%	not significantly inhibited	41%	79%	82%	94%	not significantly inhibited	90%	41%	59%
